# Legend:
# claudin-15 = biological target: T1, claudin-15 (Homo sapiens, UniProt P56746); assay: TER across MDCK I monolayers induced to express claudin-15; type: cell-based; details: FIG. 20; concentrations lower than 100 μM; resistance normalized to vehicle
# T1 construct: expressed in transfected cells; host or cells: Madin-Darby Canine Kidney (MDCK) I cells, doxycycline-induced expression
# T1 sequence (P56746 1-228): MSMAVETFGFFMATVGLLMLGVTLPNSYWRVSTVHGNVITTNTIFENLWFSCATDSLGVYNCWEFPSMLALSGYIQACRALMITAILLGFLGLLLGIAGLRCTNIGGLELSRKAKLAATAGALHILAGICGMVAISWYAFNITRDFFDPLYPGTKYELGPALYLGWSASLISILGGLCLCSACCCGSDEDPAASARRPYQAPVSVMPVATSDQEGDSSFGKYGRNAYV
# Description: Electrical measures are used to assess the flow of ions through the claudin channels. The most commonly used measurement in the tight junction field is transepithelial electrical resistance (TER). These assays can be performed using epithelial cells grown on permeable supports (in vitro) or using intact tissue from the GI tract mounted across apertures (ex vivo).
# Two different Madin-Darby Canine Kidney (MDCK) I cell lines were used, which respectively express either claudin-2 or -15 when grown in the presence of doxycycline. These cells are useful in assessing the specificity of molecule effects on claudin-2 versus claudin-15. Caco-2 BBe epithelial cells, which normally express claudin-2 and some claudin-15, were also used to better understand the utility of these molecules in blocking claudins in the gastrointestinal (GI) tract. Caco-2 BBe and MDCK cells were grown on 0.33 cm^2 polycarbonate semi-permeable membranes with 0.4 μm pores (Corning Life Sciences, Corning, NY) and used 4 days (MDCK) or 3 weeks (Caco-2 BBe) after plating. […]
# Molecules were solubilized in vehicle (dimethylsulfoxide (DMSO)) and applied to both sides of the epithelial monolayer after first measuring TER at t=0 (FIGS. 17 and 18). […] Readings were performed for at least 3 hours after application to rule out epithelial cell injury, which would reduce TER. […]
# [1] = tested on: colonoids derived from a patient with inflammatory bowel disease; assay: Organoid shrinking assay in colonoids after Na+ to NMDG+ buffer exchange; type: cell-based, human; details: FIG. 25
# Description: For this study, organoids derived from human colon biopsies (colonoids) were first equilibrated in steady-state with Na^+ as the predominant extracellular cation. Extraluminal Na^+ was then replaced with N-methyl-D-glucamine (NMDG^+) by buffer exchange. The buffer exchange generates a large concentration gradient for Na^+ to diffuse out of the organoid lumen. […] See, for example, FIG. 24. As a result, the net Na^+ flux across tight junctions creates an osmotic gradient for water to exit the organoid through tight junctions, causing organoids to shrink. The size of organoids is measured by time-lapse microscopy, and the rate and extent of shrinkage can be determined as an assay of claudin permeability. Reduced rate and extent of shrinkage indicates reduced permeability.
# Colonoids derived from a patient with inflammatory bowel disease were first equilibrated in steady-state with Na^+ containing media. Equilibrated colonoids were treated with NSC 73446 or a vehicle control and the extraluminal Na^+ was then replaced with N-methyl-D-glucamine (NMDG^+) by buffer exchange. As is apparent from the results set forth in FIG. 25, water transport across human epithelium was modulated by NSC 73446.
# mouse mucosa = assay: TER of mouse duodenum mucosa mounted in Ussing chambers; details: FIG. 22, 100 μM added bilaterally, versus vehicle, P<0.01
# Description: The same techniques to measure TER and ion selectivity also apply to intact mucosa isolated from mice. The only significant difference is the tissue was first stripped of its muscularis propria and mounted in chambers, known as Ussing chambers. The same techniques were used to measure ion selectivity. Identical solutions were used, but also bubbled with 100% oxygen.
# For TER measurements, duodenum segments were stripped of muscularis propria and mounted in Ussing chambers, and equilibrated in oxygenated HBSS for 15 min at 37° C. Vehicle control solution (DMSO) or the same solution containing 100 μM NSC 67736 were then added bilaterally. TER was recorded using current clamp pulses from 0 to 10 μA and Vrev was recorded by clamping current to 0. Electrode bridges were made 3% agarose KCl.
smiles,measurement,setting,value
O=C(Nc1cccc(C(=O)Nc2cc(C3=NCCN3)cc(C3=NCCN3)c2)c1)Nc1cccc(C(=O)Nc2cc(C3=NCCN3)cc(C3=NCCN3)c2)c1 [NSC 53299],dose response of TER,claudin-15,effective at low micromolar concentrations
CCCNC(=O)c1cc(NC(=O)Nc2ccc(C3=NCCCN3)cc2)cc(NC(=O)Nc2ccc(C3=NCCCN3)cc2)c1.Cl [NSC 73446],water transport across human epithelium,[1]; inferred from colonoid size change,reduces water transport out of the lumen of the colonoid
same,colonoid size change (rate and extent of shrinkage),"[1]; time-lapse microscopy, relative to vehicle control",minimizes the rate and extent of colonoid size decrease
Cl.Cl.O=C(Nc1ccc(C(=O)Nc2ccc(C3=NCCCN3)cc2)cc1)Nc1ccc(C2=NCCCN2)cc1 [NSC 67736],change in TER (barrier function) in mouse mucosa,mouse mucosa,increases barrier function

# From patent US20250154110A1, “CLAUDIN INHIBITORS AND METHODS OF USE THEREOF” (The University of Chicago, priority 2021, published 2025)
